Source: patent US9453031B2, “Chemical entities” (Fundación Centro Nacional de Investigaciones Oncológicas …, priority 2013, dated 2016)

Tests used:
ATR = ATR (Homo sapiens (Human), UniProt Q13535); assay: Cellular ATR inhibition, western blot of CHK1(S345) phosphorylation in hydroxyurea treated cells; assay type: cell-based; conditions: HT29 cells
Protocol: In addition to the selective system described above, Example compounds presented here were screened for their ability to inhibit intracellular ATR using a western blot assay to detect phosphorylation of the ATR substrate CHK1(S345) in hydroxyurea treated cells. HT29 cells are plated at 500,000 cells per well in 6-well plates in RPMI media (Sigma R6504) supplemented with 10% foetal bovine serum (Sigma F7524), Penicillin/Streptomycin solution diluted 1:100 (Gibco 15070-063), and fungizone (Gibco, 15290-018), and allowed to adhere overnight at 37° C. in 5% CO2. Compounds are then added to the cell media from a final concentration of 10 μM in 3-fold serial dilutions and the cells are incubated at 37° C. in 5% CO2. After 15 min, hydroxyurea (Sigma H8627) is added to a final concentration of 2.5 mM. After 30 min of treatment with hydroxyurea, the cells are washed in PBS, lysed adding 50 μl of in protein lysis buffer (50 mM Tris pH 7.5, 150 mM NaCl, 1% IGEPAL CO-630 (Sigma, Ref. 542334-100G-A), Phospho Stop (Roche, Ref. 04906837001) and Complete Mini EDTA free (Roche, Ref. 11836170001)). The protein content of the lysates was determined by the modified method of Bradford (Sigma, Ref. B6916). The proteins were resolved by SDS-PAGE and transferred to nitrocellulose membrane (VWR International Eurolab, Ref. 732-4007). The membranes were incubated overnight at 4° C. with antibodies specific for total CHK1 (Santa Cruz Biotechnology, sc-8404), phosphoserine-345 CHK1 (Cell Signaling Technology #2348) they were washed and then incubated with IRDye800 conjugated anti-mouse (Pierce/Cultek, 35521) and Alexa Fluor 680 goat anti-rabbit IgG secondary antibodies (Invitrogen, A21076). The bands were visualized and quantified using an Odyssey infrared imaging system (Li-Cor Biosciences). The percentage of phosphorylated CHK1 vs total CHK1 in cells treated with hydroxyurea was taken as hundred percent of phosphorylation. The percentage of CHK1 phosphorylation is finally plotted against concentration for each compound and EC50s for intracellular ATR inhibition are calculated using ActivityBase from IDBS.

PI3K (p110α/p85α) = PI3K (p110α/p85α) (Homo sapiens (Human), UniProt P42336); assay: PI3K alpha activity assay (ADP Hunter Plus); assay type: biochemical; conditions: 50 μM ATP, 30 μM PIP2; read-out: PI3Kα IC50
Protocol: The kinase activity was measured by using the commercial ADP Hunter™ Plus assay available from DiscoveRx (#33-016), which is a homogeneous assay to measure the accumulation of ADP, a universal product of kinase activity. […] The reaction was carried out for 1 hour at 25° C. Reagent A and B were sequentially added to the wells and plates were incubated for 30 min at 37° C. Fluorescence counts were read in a Victor instrument (Perkin Elmer) with the recommended settings (544 and 580 nm as excitation and emission wavelengths, respectively).

mTOR = mTOR (Homo sapiens (Human), UniProt P42345); assay: mTOR activity assay (LanthaScreen); assay type: biochemical
Protocol: The enzymatic mTOR activity was measured using a LanthaScreen™ kinase activity assay (Invitrogen). The enzyme was purchased from Invitrogen (PV4754), as well as the GFP-labelled substrate (4EBP1-GFP; PV4759) and the Tb-antip4EBP1(pThr46) antibody (PV4757). The assay was performed in 50 Mm HEPES buffer, pH 7.5, containing 1.5 mM MnCl2, 10 mM MgCl2, 1 mM EGTA, 2.5 mM DTT and 0.01% Tween-20. The concentration of the assay components were the following: 0.24 nM mTOR kinase, 400 nM 4EBP1-GFP, […] and serial dilutions of the compound (inhibitor) to be evaluated. After 1 h incubation at room temperature, 20 mM EDTA was used to stop the reaction and terbium-labelled antibody (4 nM) added to detect phosphorylated product. The antibody associates with the phosphorylated product resulting in an increased TR-FRET value. The TR-FRET value (a dimensionless number) was calculated as the ratio of the acceptor signal (GFP, emission at 520 nm) to the donor signal (terbium, emission at 495 nm).

DNA-PK = DNA-PK (Homo sapiens (Human), UniProt P78527); assay: DNAPK activity assay (ADP Hunter Plus); assay type: biochemical; conditions: 75 μM ATP
Protocol: The kinase activity was measured by using the commercial ADP Hunter™ Plus assay available from DiscoveRx (#90-0083), which is a homogeneous assay to measure the accumulation of ADP, a universal product of kinase activity. The enzyme, DNA-PK was purchased from Promega (#V5811). The assay was done following the manufacturer recommendations with slight modifications: Mainly the kinase buffer was replace by 15 mM HEPES, pH 7.5, 10 mM MgCl2, 20 mM NaCl, 1 mM EGTA, 0.1 mg/mL BGG, 0.02% Tween 20. The DNA-PK was assayed in a titration experiment to determine the optimal protein concentration for the inhibition assay. To calculate the […] of the Compounds, serial 1:3 dilutions of the compounds were added to the enzyme at a fixed concentration (2 U/μL). The enzyme was preincubated with the inhibitor and 200 μM DNA substrate and then ATP was added to a final 75 μM concentration. Reaction was carried out for 1 hour at 37° C. Reagent A and B were sequentially added to the wells and plates were incubated for 30 min at RT. Fluorescence counts were read in a EnVision instrument (Perkin Elmer) with the recommended settings (550 and 590 nm as excitation and emission wavelengths, respectively).

Chain of mTOR (P42345 1360-2549): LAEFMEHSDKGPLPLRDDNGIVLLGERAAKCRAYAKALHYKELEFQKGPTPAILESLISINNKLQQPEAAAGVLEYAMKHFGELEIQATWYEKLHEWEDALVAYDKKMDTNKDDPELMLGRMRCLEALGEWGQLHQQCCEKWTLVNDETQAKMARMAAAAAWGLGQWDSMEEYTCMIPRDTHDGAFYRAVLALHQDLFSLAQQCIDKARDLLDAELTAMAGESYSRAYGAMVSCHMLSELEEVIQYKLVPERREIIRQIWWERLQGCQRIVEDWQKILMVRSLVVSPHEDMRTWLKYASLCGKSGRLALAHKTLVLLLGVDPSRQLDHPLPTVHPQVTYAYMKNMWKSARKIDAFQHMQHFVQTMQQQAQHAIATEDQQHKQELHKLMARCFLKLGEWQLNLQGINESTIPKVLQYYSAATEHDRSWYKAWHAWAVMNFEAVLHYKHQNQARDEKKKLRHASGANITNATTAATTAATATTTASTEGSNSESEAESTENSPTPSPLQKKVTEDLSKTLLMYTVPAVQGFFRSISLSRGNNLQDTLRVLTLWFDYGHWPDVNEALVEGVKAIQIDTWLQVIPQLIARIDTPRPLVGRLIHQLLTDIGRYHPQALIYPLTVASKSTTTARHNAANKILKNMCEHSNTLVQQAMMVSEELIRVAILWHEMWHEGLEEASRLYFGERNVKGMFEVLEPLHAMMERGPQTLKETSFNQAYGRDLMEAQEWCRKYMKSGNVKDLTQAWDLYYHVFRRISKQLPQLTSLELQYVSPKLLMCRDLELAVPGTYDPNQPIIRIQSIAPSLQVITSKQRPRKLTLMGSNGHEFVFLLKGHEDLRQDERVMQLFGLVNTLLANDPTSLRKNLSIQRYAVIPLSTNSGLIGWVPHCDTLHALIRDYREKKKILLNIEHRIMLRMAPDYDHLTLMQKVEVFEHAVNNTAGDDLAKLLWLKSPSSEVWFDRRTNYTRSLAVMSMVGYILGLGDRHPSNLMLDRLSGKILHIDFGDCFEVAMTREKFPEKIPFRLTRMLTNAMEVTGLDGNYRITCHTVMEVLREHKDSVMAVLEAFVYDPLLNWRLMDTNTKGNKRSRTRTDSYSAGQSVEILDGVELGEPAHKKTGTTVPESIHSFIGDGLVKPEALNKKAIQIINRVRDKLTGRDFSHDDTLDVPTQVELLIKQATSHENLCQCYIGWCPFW
Chain of PI3K (p110α/p85α) (P42336 whole entry): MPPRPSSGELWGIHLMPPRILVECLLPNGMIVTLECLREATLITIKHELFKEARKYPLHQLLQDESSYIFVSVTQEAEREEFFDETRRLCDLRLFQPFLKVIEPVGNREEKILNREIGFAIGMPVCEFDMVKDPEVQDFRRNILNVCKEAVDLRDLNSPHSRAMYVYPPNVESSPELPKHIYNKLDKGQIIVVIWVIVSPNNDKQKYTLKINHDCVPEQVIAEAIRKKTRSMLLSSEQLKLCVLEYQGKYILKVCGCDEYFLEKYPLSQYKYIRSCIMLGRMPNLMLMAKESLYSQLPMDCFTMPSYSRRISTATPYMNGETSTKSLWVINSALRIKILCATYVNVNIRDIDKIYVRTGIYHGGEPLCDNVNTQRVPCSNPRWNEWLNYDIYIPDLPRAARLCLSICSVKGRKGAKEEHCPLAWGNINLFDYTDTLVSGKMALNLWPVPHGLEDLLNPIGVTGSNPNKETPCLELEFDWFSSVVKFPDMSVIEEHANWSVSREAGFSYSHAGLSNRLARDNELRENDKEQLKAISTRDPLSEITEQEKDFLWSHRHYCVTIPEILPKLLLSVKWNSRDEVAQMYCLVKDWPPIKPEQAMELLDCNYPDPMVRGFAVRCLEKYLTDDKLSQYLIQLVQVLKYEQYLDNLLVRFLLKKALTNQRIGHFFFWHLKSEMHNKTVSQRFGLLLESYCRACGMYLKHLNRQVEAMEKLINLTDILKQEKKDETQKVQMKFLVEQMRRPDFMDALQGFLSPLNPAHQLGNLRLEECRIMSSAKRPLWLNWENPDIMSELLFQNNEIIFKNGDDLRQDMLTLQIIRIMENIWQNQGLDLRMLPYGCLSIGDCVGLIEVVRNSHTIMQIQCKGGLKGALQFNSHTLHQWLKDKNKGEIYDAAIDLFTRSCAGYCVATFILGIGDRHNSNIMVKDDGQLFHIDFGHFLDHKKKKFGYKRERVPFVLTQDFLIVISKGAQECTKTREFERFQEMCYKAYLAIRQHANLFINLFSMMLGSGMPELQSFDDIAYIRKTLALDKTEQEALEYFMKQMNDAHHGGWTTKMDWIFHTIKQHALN
Chain of PI3K (p110α/p85α) (P27986 whole entry partner): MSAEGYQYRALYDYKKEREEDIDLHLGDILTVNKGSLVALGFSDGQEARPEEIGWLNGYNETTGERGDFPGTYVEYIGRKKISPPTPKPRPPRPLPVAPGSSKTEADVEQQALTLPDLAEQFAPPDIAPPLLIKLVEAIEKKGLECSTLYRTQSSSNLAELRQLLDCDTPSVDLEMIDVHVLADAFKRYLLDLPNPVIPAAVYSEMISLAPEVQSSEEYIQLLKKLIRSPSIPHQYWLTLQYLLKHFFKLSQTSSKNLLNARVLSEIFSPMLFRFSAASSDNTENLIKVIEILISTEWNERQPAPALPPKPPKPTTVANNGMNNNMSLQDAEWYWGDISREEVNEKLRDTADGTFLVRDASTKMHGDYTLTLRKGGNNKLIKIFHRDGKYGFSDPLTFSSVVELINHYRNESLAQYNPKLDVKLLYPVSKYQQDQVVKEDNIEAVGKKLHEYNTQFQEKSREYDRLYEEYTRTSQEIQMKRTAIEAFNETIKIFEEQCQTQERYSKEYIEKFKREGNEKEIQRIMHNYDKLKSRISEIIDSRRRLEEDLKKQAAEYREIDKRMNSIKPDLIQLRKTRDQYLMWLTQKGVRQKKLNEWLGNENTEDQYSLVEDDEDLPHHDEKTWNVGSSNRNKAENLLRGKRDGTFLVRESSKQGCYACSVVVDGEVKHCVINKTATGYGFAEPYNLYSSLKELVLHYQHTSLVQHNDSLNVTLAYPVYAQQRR

Compound | EC50 (ATR; hydroxyurea 2.5 mM) | other results
COc1ccc(-c2nc3c(c(C4(S(C)(=O)=O)CCOCC4)n2)OCC2COCCN32)c2cc[nH]c12 (centres unmarked) [Example 37] | 100 to 1000 nM | 
CCOC(=O)N1CCC(c2nc(-c3cccc4[nH]ccc34)nc3c2OC[C@@H]2COCCN32)(S(C)(=O)=O)CC1 [Example 68] | 100 to 1000 nM | 
CC(C)(c1nc(-c2cccc3[nH]ccc23)nc2c1OCC[C@@H]1COCCN21)S(C)(=O)=O [Example 25] | 100 to 1000 nM | IC50 (PI3K (p110α/p85α)): 23400 nM; IC50 (mTOR): 582 nM
CS(=O)(=O)C1(c2nc(-c3cc(F)cc4[nH]ccc34)nc3c2OCC2COCCN32)CCOCC1 (centres unmarked) [Example 17] | < 100 nM | 
CS(=O)(=O)C1(c2nc(-c3ccc(F)c4[nH]ccc34)nc3c2OC[C@@H]2COCCN32)CC1 [Example 110] | > 1000 nM | IC50 (PI3K (p110α/p85α)): 50000 nM; IC50 (mTOR): 10000 nM; IC50 (DNA-PK): 10000 nM
CNc1nc2cc(F)ccc2n1-c1nc2c(c(C3(S(C)(=O)=O)CCC3)n1)OC[C@@H]1COCCN21 [Example 96] |  | EC50 (ATR; hydroxyurea […]): 100 to 1000 nM; IC50 (PI3K (p110α/p85α)): 50000 nM; IC50 (mTOR): 6080 nM; IC50 (DNA-PK): 10000 nM
CC(C)(O)c1nc(-c2cccc3[nH]ccc23)nc2c1OCC1COCCN21 (centres unmarked) [Example 38] | 100 to 1000 nM | 
C[S@TB17](=O)(=O)Nc1nc(-c2cccc3[nH]ccc23)nc2c1OCC1COCCN21 (centres unmarked) [Example 35] | > 1000 nM | 
COc1cc(-c2nc3c(c(C4(S(C)(=O)=O)CCC4)n2)OC[C@@H]2COCCN32)c2cc[nH]c2c1 [Example 78] | < 100 nM | IC50 (PI3K (p110α/p85α)): 4490 nM; IC50 (mTOR): 47 nM
CS(=O)(=O)c1cccc(-c2nc(-c3cccc4[nH]ccc34)nc3c2OCC2COCCN32)c1 (centres unmarked) [Example 43] | 100 to 1000 nM | 
CS(=O)(=O)C1(c2nc(-c3cccc4[nH]ccc34)nc3c2OC[C@@H]2COCCN32)CCC1 [Example 67] | < 100 nM | 
CC(C)(c1nc(-c2cccc3[nH]ncc23)nc2c1OC[C@H]1COCCN21)S(C)(=O)=O [Example 21] | > 1000 nM | 
CNc1nc2ccc(Cl)cc2n1-c1nc2c(c(C3(S(C)(=O)=O)CCC3)n1)OC[C@@H]1COCCN21 [Example 95] | > 1000 nM | 
CNc1nc2cc(C#N)ccc2n1-c1nc2c(c(C(C)(C)S(C)(=O)=O)n1)OC[C@@H]1COCCN21 [Example 113] |  | EC50 (ATR; hydroxyurea […]): > 1000 nM
CCCNc1nc2ccccc2n1-c1nc2c(c(C(C)(C)S(C)(=O)=O)n1)OC[C@@H]1COCCN21 [Example 65] | < 100 nM | 
CNc1nc2ccccc2n1-c1nc2c(c(C3(S(C)(=O)=O)CCOCC3)n1)OCC1COCCN21 (centres unmarked) [Example 12] | 100 to 1000 nM | 
CN1CCC(c2nc(-c3cccc4[nH]ccc34)nc3c2OCC2COCCN32)(S(C)(=O)=O)CC1 (centres unmarked) [Example 36] | > 1000 nM | 
CC(C)(C#N)c1nc(-c2cccc3[nH]ccc23)nc2c1OCC1COCCN21 (centres unmarked) [Example 40] | 100 to 1000 nM | 
CC1(c2nc(-c3cccc4[nH]ccc34)nc3c2OCC2COCCN32)CCCS1(=O)=O (centres unmarked) [Example 41] | 100 to 1000 nM | 
CS(=O)(=O)C1(c2nc(-c3cccc4[nH]ccc34)nc3c2OC[C@@H]2COCCN32)CCNCC1 [Example 69] | 100 to 1000 nM | 
Cc1cc2c(-c3nc4c(c(C5(S(C)(=O)=O)CCOCC5)n3)OCC3COCCN43)cccc2[nH]1 (centres unmarked) [Example 20] | 100 to 1000 nM | 
CCNc1nc2ccccc2n1-c1nc2c(c(C(C)(C)S(C)(=O)=O)n1)OC[C@@H]1COCCN21 [Example 64] | 100 to 1000 nM | 

Compound | EC50 (ATR; hydroxyurea 2.5 mM) | other results
COc1cc(-c2nc3c(c(C4(S(C)(=O)=O)CCOCC4)n2)OCC2COCCN32)c2cc[nH]c2c1 (centres unmarked) [Example 19] | < 100 nM | 
COc1cc(-c2nc3c(c(C4([S@TB1](C)(=O)=O)CCOCC4)n2)OCCC2COCCN32)c2cc[nH]c2c1 (centres unmarked) [Example 34] | 100 to 1000 nM | 
c1cc(-c2nc(-c3cccc4[nH]ccc34)c3c(n2)N2CCOCC2CO3)c2cc[nH]c2c1 (centres unmarked) [Example 42] | 100 to 1000 nM | 
CC(C)(c1nc(-c2cccc3[nH]ccc23)nc2c1OCC1COCCN21)S(=O)(=O)C1CC1 (centres unmarked) [Example 4] | < 100 nM | 
CS(=O)(=O)C1(c2nc(-c3c(F)ccc4[nH]ccc34)nc3c2OCC2COCCN32)CCOCC1 (centres unmarked) [Example 13] | 100 to 1000 nM | 
CS(=O)(=O)C1(c2nc(-c3cccc4[nH]ccc34)nc3c2OCC[C@@H]2COCCN32)CCOCC1 [Example 22] | 100 to 1000 nM | 
CNc1nc2ccccc2n1-c1nc2c(c(C3(S(C)(=O)=O)CCOCC3)n1)OCCC1COCCN21 (centres unmarked) [Example 32] | > 1000 nM | 
CN(C)c1nc2ccccc2n1-c1nc2c(c(C(C)(C)S(C)(=O)=O)n1)OC[C@@H]1COCCN21 [Example 79] | 100 to 1000 nM | IC50 (PI3K (p110α/p85α)): 28600 nM
CC(C)(c1nc(-c2cccc3[nH]ccc23)nc2c1OCC[C@H]1COCCN21)S(C)(=O)=O [Example 24] | 100 to 1000 nM | 
CC(C)Nc1nc2ccccc2n1-c1nc2c(c(C(C)(C)S(C)(=O)=O)n1)OC[C@@H]1COCCN21 [Example 63] | < 100 nM | 
CS(=O)(=O)C1(c2nc(-c3ccc(F)c4[nH]ccc34)nc3c2OC[C@@H]2COCCN32)CCC1 [Example 76] | > 1000 nM | IC50 (PI3K (p110α/p85α)): 50000 nM
CC(C)(O)c1nc(-c2cc(F)cc3[nH]ccc23)nc2c1OC[C@@H]1COCCN21 [Example 45] | 100 to 1000 nM | 
CS(=O)(=O)Cc1nc(-c2cccc3[nH]ccc23)nc2c1OCC1COCCN21 (centres unmarked) [Example 7] | 100 to 1000 nM | 
CNc1nc2cc(Cl)ccc2n1-c1nc2c(c(C3(S(C)(=O)=O)CCC3)n1)OC[C@@H]1COCCN21 [Example 94] | > 1000 nM | 
CS(=O)(=O)C1(c2nc(-c3ccnc4[nH]ccc34)nc3c2OCC2COCCN32)CCOCC1 (centres unmarked) [Example 18] | < 100 nM | 
C[S@TB17](=O)(=O)C1(c2nc(-c3cc(F)cc4[nH]ccc34)nc3c2OCCC2COCCN32)CCOCC1 (centres unmarked) [Example 33] | 100 to 1000 nM | 
CC(C)(c1nc(-c2ccnc3[nH]ccc23)nc2c1OCC1COCCN21)S(C)(=O)=O (centres unmarked) [Example 16] | 100 to 1000 nM | 
CS(=O)(=O)C1(c2nc(-c3cncc4[nH]ccc34)nc3c2OCC2COCCN32)CCOCC1 (centres unmarked) [Example 9] | 100 to 1000 nM | 
CC(C)(c1nc(-c2c(F)ccc3[nH]ccc23)nc2c1OCC1COCCN21)S(C)(=O)=O (centres unmarked) [Example 14] | 100 to 1000 nM | 
CS(=O)(=O)C1(c2nc(-c3cccc4[nH]ccc34)nc3c2OCC2COCCN32)CC1 (centres unmarked) [Example 27] | 100 to 1000 nM | 
CNc1nc2ccccc2n1-c1nc2c(c(C(C)(C)O)n1)OCC1COCCN21 (centres unmarked) [Example 39] | 100 to 1000 nM | 
CNc1nc2ccccc2n1-c1nc2c(c(C(C)(C)[S@TB1](C)(=O)=O)n1)OCCC1COCCN21 (centres unmarked) [Example 31] | < 100 nM | 
